Each block holds one compound with its values, some of them ahead of it.
How the values were obtained:
Type in all cases: binding
[1] = biological target: T1, glycolipid transfer protein (GLTP) (Homo sapiens, UniProt Q9NZD2); assay: X-ray crystal structure; tryptophan fluorescence Kd; design: recombinant human GLTP, His6- and S-tags removed by Factor Xa
T1 sequence (Q9NZD2 2-209): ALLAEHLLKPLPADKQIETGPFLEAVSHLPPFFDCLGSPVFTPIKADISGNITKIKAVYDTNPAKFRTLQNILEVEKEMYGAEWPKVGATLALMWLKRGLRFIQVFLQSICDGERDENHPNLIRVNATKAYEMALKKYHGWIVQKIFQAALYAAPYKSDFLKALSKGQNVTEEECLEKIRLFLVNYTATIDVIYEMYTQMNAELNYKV

[2] = biological target: T1, glycolipid transfer protein (GLTP); assay: tryptophan fluorescence Kd (crystal structure 1SX6 from earlier paper); design: recombinant human GLTP
[3] = biological target: T1, glycolipid transfer protein (GLTP); assay: X-ray crystal structure ([…] Å); tryptophan fluorescence Kd; design: recombinant human GLTP, His6- and S-tags removed by Factor Xa
[4] = biological target: T1, glycolipid transfer protein (GLTP); assay: X-ray crystal structure; design: recombinant human GLTP, His6- and S-tags removed by Factor Xa

Compound: CCCCC/C=C\C/C=C\CCCCCCCC(=O)N[C@@H](CO[C@@H]1O[C@H](CO)[C@H](O)[C@H](O)[C@H]1O)[C@H](O)/C=C/CCCCCCCCCCCCC [18:2 GalCer, N-cis-N-cis-9,12-octadecenoyl galactosyl-sphingosine]
Kd [1]: 200 nM

Compound: CCCCCCCC/C=C\CCCCCCCCCCCCCC(=O)N[C@@H](CO[C@@H]1O[C@H](CO)[C@H](O)[C@H](O)[C@H]1O)[C@H](O)/C=C/CCCCCCCCCCCCC [24:1 GalCer, N-cis-15-tetracosenoyl galactosyl-sphingosine]
Kd [3]: 250 nM

Compound: CCCCCCO[C@@H]1O[C@H](CO)[C@@H](O)[C@H](O)[C@H]1O [n-hexyl-β-D-glucoside]
X-ray crystal structure [4]: The sugar headgroup of n-hexyl-β-D-glucoside binds the GLTP recognition center in a manner similar to all GSL-GLTP complexes

Now from value to compound:

Kd [1]: 200 nM
Compound: CCCCCCCCCCCCC/C=C/[C@@H](O)[C@H](CO[C@@H]1O[C@H](CO)[C@@H](O[C@@H]2O[C@H](CO)[C@H](O)[C@H](O)[C@H]2O)[C@H](O)[C@H]1O)NC(=O)CCCCCCC [8:0 LacCer, N-octanoyl lactosylsphingosine]

Kd [2]: 270 nM
Compound: CCCCCCCC/C=C\CCCCCCCC(=O)N[C@@H](CO[C@@H]1O[C@H](CO)[C@@H](O[C@@H]2O[C@H](CO)[C@H](O)[C@H](O)[C@H]2O)[C@H](O)[C@H]1O)[C@H](O)/C=C/CCCCCCCCCCCCC [18:1 LacCer, N-cis-9-octadecenoyl lactosylsphingosine]

Source: PMC1618416, “The Liganding of Glycolipid Transfer Protein Is Controlled by Glycolipid Acyl Structure” (PLoS Biology, 2006)
